Data: patent US8629328B2 (Monsanto Technology LLC, priority 2006, dated 2014)
Like-named read-outs stand apart in the source and are kept apart here.

Assays:
[1] = test system: corn inbreds 01CSI6 and LH244; settings: 0.5 lb/a at V3 followed by 1 lb/a at V8
Text: (§1) Transgenic corn plants were produced by the methods known in the art such as WO9506722 and US patent application 20040244075. […] Six events from each of the six constructs were used. […] The entire plot was fertilized uniformly to obtain an agronomically acceptable crop. A soil insecticide such as Force® 3G (Syngenta Crop Protection, Greensboro, N.C., USA) at 5 oz. per 1000 ft. of row for control of corn rootworm was applied at planting time. If black cutworm infestation was observed, POUNCE® 3.2EC at 4 to 8 oz. per acre rate (FMC Corporation, Philadelphia, Pa.) was used. In addition, an insecticide spray program was used to control all above ground lepidopteran pests including European corn borer, corn earworm, and fall armyworm. POUNCE® 3.2EC at 4 to 8 oz. per acre was applied every 3 weeks to control lepidopteran pests; about 4 applications were made. The plot was kept weed free with a pre-emergence application of a herbicide such as Harness® Xtra 5.6 L (Monsanto, St. Louis, Mo.) and Degree Xtra® (Monsanto, St. Louis, Mo.).
(§2) Brace root injury was evaluated visually by counting the number of plants in a row showing an “atypical” morphology of having the brace roots fused as compared to a typical morphology of “finger-like” structure.

[2] = test system: soybean plants transformed with the DMO-encoding polynucleotide construct (Events 1-4)
Protocol: (§3) Transgenic soybean plants were obtained by Agrobacterium transformation of soybean cotyledonary nodes using standard procedures and a binary vector containing the DMO-encoding polynucleotide given as SEQ ID NO:7, which encodes the polypeptide of SEQ ID NO:8. Four transgenic soybean events were prepared and designated Events 1-4. […] Non-transgenic soybean plants were used as controls.
(§4) Transgenic and control soybean seeds were planted into 3.5-inch square plastic pots containing Redi-earth™ (Scotts-Siena Horticultural Products Co., Marysville, Ohio). […] The pots were placed on capillary matting in 35 inch×60 inch fiberglass watering trays for overhead and/or sub-irrigation for the duration of the test period so as to maintain optimum soil moisture for plant growth and were fertilized with Osmocote (14-14-14 slow release; Scotts-Siena Horticultural Products Co., Marysville, Ohio) at the rate of 100 gm/cu.ft. to sustain plant growth for the duration of greenhouse trials.
The plants were grown in greenhouses at 27°/21° C. day/night temperature with relative humidity between 25%-75% to simulate warm season growing conditions of late spring. A 14 h minimum photoperiod was provided with supplemental light at about 600 μE as needed.
(§5) Treated plants in greenhouse trials were visually assessed at a particular day after treatment (DAT) for injury on a scale of 0 to 100 percent relative to untreated control plants, with zero representing “no” injury and 100% representing “complete” injury or death. Data were collected and analyzed using suitable statistical methods.
The spray nozzle was kept at a height of about 16 inches above the top of the plant material for spraying. The spray volume was 10 gallons per acre or 93 liters per hectare.

[3] = test system: transformed cotton plants comprising a DMO coding region
Text: Several DNA constructs carrying a DMO coding region as disclosed herein with a transit peptide (e.g., PsRbcS CTP, CTP1, CTP2) under the control of plant gene expression elements such as a promoter (e.g. PC1SV, FMV, or e35S), and a 3′UTR (e.g. E6; Accession #U30508) were produced and transformed into cotton (Gossypium hirsutum) as follows. Nucleotide sequences/and or patent references for various expression elements are disclosed in co-pending application U.S. Ser. No. 60/891,675. Media used are noted in Table 13.
Cotton transformation was performed, for instance as described according to U.S. Patent Application Publication 20040087030, via an embryogenic approach. Explants of cotton cv Coker 130 were grown in vitro and with a liquid suspension of Agrobacterium tumefaciens carrying a DNA construct of interest, using selection on kanamycin containing media. Putative transgenic plantlets were then transferred to soil to obtain mature cotton plants.

[4] = test system: transgenic corn plants transformed with DNA constructs carrying DMO; settings: for Percentage brace root injury: 0.5 lb/a at V3 followed by 1 lb/a at V8
Text: This expression element contains first intron and flanking UTR exon sequences from the rice actin 1 gene and includes 12 nt of exon 1 at the 5′ end and 7 nt of exon 2 at the 3′ end), and a 3′UTR (e.g. TaHsp17). Nucleotide sequences/an or patent references for various expression elements are disclosed in co-pending application U.S. Ser. No. 60/891,675.
as §1, §2

[5] = test system: MARESTAIL (KY) Resistant; experiment: Control of marestail by dicamba or glyphosate, treated at rosette leaf stage; assay type: in vivo, Conyza canadensis; settings: dicamba formulation 280 g/ha
Text: (§6) Marestail is one of the major weeds in a crop field. Marestail is effectively controlled by glyphosate, but the development of methods for controlling this common weed with other herbicides is important to minimize opportunities for herbicide tolerance to develop.

[6] = test system: MARESTAIL (CA) Resistant; experiment: as above; assay type: in vivo, Conyza canadensis; settings: dicamba formulation 280 g/ha
Text: as §6

[7] = test system: Marestail Resistant (KY); experiment: Dicamba, glyphosate and their combination on marestail; assay type: in vivo, Conyza canadensis; settings: dicamba formulation 40 g/ha
[8] = test system: soybean plants transformed with the DMO-encoding polynucleotide construct (Events 1-4); settings: early pre-emergence; highest rate 5040 g/ha, 4.5 lb/acre, 9× labeled rate
Protocol: as §3
as §4, with “trials. […]” for “trials.”
as §5

How did the “Percentage brace root injury” value ([1]; 01CSI6, susceptible inbred to dicamba) turn out when `COc1c(Cl)ccc(Cl)c1C(=O)O` [dicamba, 3,6-dichloro-o-anisic acid] was run?
The value was 95.4%.

What about the “Percentage brace root injury” value ([1]; LH244, resistant inbred to dicamba) of the same molecule?
The value was 93.8%.

What about the “injury to transgenic dicamba tolerant plants” value ([2]; approximately 2× rate of application of 1122 g/ha) of the same molecule?
Its value is “less than 2%”.

And the “injury to transgenic plants” value ([2]; at sowing + post-emergence, overall dicamba rate 10080 g/ha, 9 lb/acre, 18× labeled rate)?
The value was “less than 20%”.

And the “injury to transgenic events” value ([2]; late pre-emergence + post-emergence, overall 10080 g/ha, 9 lb/acre, 18× labeled rate)?
Its value is “less than 20%”.

What about the “injury in the transgenic events” value ([2]; late pre-emergence at soil cracking, 5040 g/ha, 4.5 lb/acre, 9× labeled rate) of the same molecule?
Its value is “less than 5%”.

What about the “tolerance to subsequent post-emergent treatment” value ([3]; 0.5 lb/acre at V3-4 followed by 1 or 2 lb/acre at V5 or later stages) of the same molecule?
Its value is “still tolerant”.

What about the tolerance ([3]; post-emergent at V4-5 growth stage, 561 g ae/ha (0.5 lb/a)) of the same molecule?
Its tolerance is “tolerant”.

And the “tolerance of R1 transgenic seeds and plants” value ([3]; pre-emergence or pre-emergence and post-emergence dicamba treatment)?
Its value is “tolerant”.

What about the “level of brace root injury” value ([4]; constructs coding for a DMO linked to a CTP (pMON73716, pMON73700, pMON73715, pMON73703)) of the same molecule?
Its value is “lower level of brace root injury”.

What about the “level of brace root injury” value ([4]; constructs coding for a DMO without CTP (pMON73699, pMON73704)) of the same molecule?
Its value is “higher level of brace root injury”.

What about the “Percentage brace root injury” value ([4]; pMON73699 (PC1SV/I-OsAct1/DMO-Wmc/TaHsp17)) of the same molecule?
The value was 93.2%.

And the “Percentage brace root injury” value ([4]; pMON73700 (PC1SV/I-OsAct1/CTP1/DMO-Wmc/TaHsp17))?
Its value is 74.4%.

What about the “Percentage brace root injury” value ([4]; pMON73703 (e35S/I-OsAct1/CTP1/DMO-Wmc/TaHsp17)) of the same molecule?
Its value is 68.8%.

And the “Percentage brace root injury” value ([4]; pMON73704 (e35S/I-OsAct1/DMO-Wmc/TaHsp17))?
The value was 91.3%.

And the “Percentage brace root injury” value ([4]; pMON73715 (PC1SV/I-OsAct1/CTP2syn/DMO-Wmc/TaHsp17))?
Its value is 68.2%.

And the “Percentage brace root injury” value ([4]; pMON73716 (PC1SV/I-OsAct1/TaWaxy/DMO-Wmc/TaHsp17))?
The value was 78.8%.

And the “% Injury (21 DAT)” value [5]?
The value was “about 91%”.

What about the “% Injury (21 DAT)” value [6] of the same molecule?
The value was “about 83%”.

What about the “% Injury (18 DAT)” value [7] of the same molecule?
The value was “about 52%”.

What about the “injury to the transgenic plants” value [8] of the same molecule?
The value was “less than 10%”.
